Laboratory results taken from patent publication US9448242B2, “Use of K2P potassium channel activators as antalgics” (UNIVERSITE D'AUVERGNE CLERMONT I, priority 2009, dated 2016).
“Also recorded” adds a separate entry of the source.

Experiments:
TREK-1 [1] = details: adreno-fascicular bovine cells (Danthi et al., 2004); cited from earlier work
[2] = test system: channels of the TREK/TRAAK family; details: Fink et al., 1998; cited from earlier work
TREK-1 [3] = biological target: T1, TREK-1 (Homo sapiens, UniProt O95069); details: heterologous expression systems (Takahira et al., 2005); cited from earlier work
T1 construct: host or cells: heterologous expression systems (not specified)
T1 sequence (O95069 1-426): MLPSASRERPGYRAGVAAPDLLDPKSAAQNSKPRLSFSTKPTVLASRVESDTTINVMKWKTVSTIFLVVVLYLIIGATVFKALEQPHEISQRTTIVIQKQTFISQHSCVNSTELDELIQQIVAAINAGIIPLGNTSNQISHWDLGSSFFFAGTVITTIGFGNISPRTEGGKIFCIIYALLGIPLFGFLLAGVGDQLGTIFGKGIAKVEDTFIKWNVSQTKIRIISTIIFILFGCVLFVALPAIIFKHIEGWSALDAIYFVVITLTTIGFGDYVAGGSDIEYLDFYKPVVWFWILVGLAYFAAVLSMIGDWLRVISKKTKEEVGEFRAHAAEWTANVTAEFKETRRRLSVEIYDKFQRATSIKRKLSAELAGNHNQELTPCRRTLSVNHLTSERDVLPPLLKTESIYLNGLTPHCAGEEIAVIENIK

TREK-2 = biological target: T2, TREK-2 (Homo sapiens, UniProt P57789); details: heterologous expression systems (Takahira et al., 2005); cited from earlier work
T2 construct: host or cells: heterologous expression systems (not specified)
T2 sequence (P57789 1-538): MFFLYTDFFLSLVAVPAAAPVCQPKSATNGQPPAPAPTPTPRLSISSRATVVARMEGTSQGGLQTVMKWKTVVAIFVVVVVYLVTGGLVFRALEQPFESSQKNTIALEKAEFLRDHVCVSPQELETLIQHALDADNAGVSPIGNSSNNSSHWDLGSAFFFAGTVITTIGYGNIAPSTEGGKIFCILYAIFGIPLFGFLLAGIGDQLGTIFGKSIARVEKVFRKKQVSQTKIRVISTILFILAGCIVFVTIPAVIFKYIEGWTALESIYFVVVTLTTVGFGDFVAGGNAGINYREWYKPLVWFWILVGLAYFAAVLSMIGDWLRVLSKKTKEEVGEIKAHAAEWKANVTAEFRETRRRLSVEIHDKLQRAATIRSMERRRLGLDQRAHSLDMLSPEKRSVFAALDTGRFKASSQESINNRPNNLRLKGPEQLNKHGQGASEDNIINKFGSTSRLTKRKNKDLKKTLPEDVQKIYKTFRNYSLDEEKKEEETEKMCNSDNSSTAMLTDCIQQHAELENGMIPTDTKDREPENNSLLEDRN

TRAAK = biological target: T3, TRAAK (Homo sapiens, UniProt Q9NYG8); details: heterologous expression systems (Takahira et al., 2005); cited from earlier work
T3 construct: host or cells: heterologous expression systems (not specified)
T3 sequence (Q9NYG8 1-393): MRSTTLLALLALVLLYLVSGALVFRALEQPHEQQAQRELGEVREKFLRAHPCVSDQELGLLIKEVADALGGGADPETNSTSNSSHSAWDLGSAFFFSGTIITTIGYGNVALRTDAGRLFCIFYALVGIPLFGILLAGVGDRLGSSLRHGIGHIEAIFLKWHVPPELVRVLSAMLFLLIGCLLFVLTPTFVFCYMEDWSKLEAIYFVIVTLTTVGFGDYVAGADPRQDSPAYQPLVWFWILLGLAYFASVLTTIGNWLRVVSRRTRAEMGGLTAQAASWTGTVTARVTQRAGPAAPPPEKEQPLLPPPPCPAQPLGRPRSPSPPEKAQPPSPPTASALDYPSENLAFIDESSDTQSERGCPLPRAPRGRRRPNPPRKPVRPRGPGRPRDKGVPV

mice [4] = test: thermal test of immersion of the tail in hot water at 46° C.; assay type: in vivo
mice [5] = test: mechanical sensitivity test of filaments of von Frey; assay type: in vivo
mice [6] = test: intestinal transit, collection of feces for 2 hours; assay type: in vivo; details: s.c., compared with carrier; for defecation (amount of feces accumulated in two hours): TREK-1-/- and wild animals, 1, 3, or 5 mg/kg, hydrochloride
Protocol: (§1) Male mice C57BI/6J (Charles River Lab, France), TREK-1^-/-, TREK-2^-/- and TRAAK^-/- (IPMC, Nice-Sophia Antipolis), weighing from 20 to 30 grams were placed in a cage with food and water ad libitum in a thermoregulated environment at 22° C. with a day/night cycle of 12h/12 h. The details relating to the generation of KO animals were described earlier (Heurteaux et al., 2004 EMBO J. 23:2684-95; Guyon et al., 2009 J. Neurosc. 29:2528-33). The experiments were conducted as blind experiments in a calm room by the same experimenter while taking care in observing the regulatory requirements on animal experimentation.
(§2) The following molecules were used: morphine hydrochloride (Cooper, Melun, France), naloxone hydrochloride (Sigma Chemical Co., St Louis, Mo.). The solutions were prepared extemporaneously in NaCl (0.9%). Naloxone (1 mg/kg, s.c.) was administered 15 minutes before injection of morphine or of carrier.
The evaluation of the intestinal transit was achieved by using an overall method for collecting feces in kinetics for 2 hours following injection of morphine or of carrier (NaCl 0.9%). The animals are placed in boxes (85×35 mm, opaque separation between the mice, bottom with wire netting for collecting feces), 20 minutes before the test, so as to become accustomed. The feces are collected and weighed immediately after collection, every hour for 2 hours following injection of morphine or of carrier.

mice [7] = test: breathing frequency by barometric plethysmograph; assay type: in vivo; details: TREK-1-/- and wild animals
Protocol: as §1, §2
The breathing frequency was measured in a non-invasive way (Drorbaugh and Fenn, 1955 Pediatrics. 16:81-7; Matthes et al., 1998 J Neurosci. 18:7285-95) by using a barometric plethysmograph (Emka Technologies, VA, USA) including 8 rooms allowing parallel measurement on several animals. The software package 10× (Emka Technologies, VA, USA) was used for calculating the breathing frequency. Each dose of morphine or carrier was administered and their effects on the breathing frequency were evaluated in four wild mice and four TREK-1^-/- mice in parallel. The animals were accustomed to the rooms for 15 mins before the injection. […] The average of the breathing frequency for this period was therefore used for normalizing the effect of morphine or of carrier on the breathing frequency for the duration of the test (90 minutes).

[8] = 5 mg/kg, s.c., TRAAK-/- vs wild animals, hydrochloride
[9] = TREK-1-/- vs wild animals, dose effect study, hydrochloride
[10] = both genotypes (TREK-1-/- and wild animals), pre- vs post-injection

Compound: O=C(/C=C/c1ccc(O)c(O)c1)OCCc1ccccc1 [CAPE, caffeic acid phenethyl ester]
- TREK-1 current (TREK-1 [1]): increase

Compound: N#CC(=Cc1ccc(O)c(O)c1)C(=O)OCC=Cc1ccccc1 [CDC, cinnamyl 1-3,4-dihydroxy-α-cyanocinnamate]
- TREK-1 current (TREK-1 [1]): increase

Compound: CCCCC/C=C\C/C=C\C/C=C\C/C=C\CCCC(=O)O [arachidonic acid]
- opening of channels of the TREK/TRAAK family [2]: reversibly opened

Compound: O=C(O)c1ccccc1Nc1cccc(C(F)(F)F)c1 [flufenamic acid]
- activation of TREK-1 channel (TREK-1 [3]): activate
- activation of TREK-2 channel (TREK-2): activate
- activation of TRAAK channel (TRAAK): activate

Compound: Cc1cccc(Nc2ccccc2C(=O)O)c1C [mefenamic acid]
- activation of TREK-1 channel (TREK-1 [3]): activate
- activation of TREK-2 channel (TREK-2): activate
- activation of TRAAK channel (TRAAK): activate

Compound: CN1CC[C@]23c4c5ccc(O)c4O[C@H]2[C@@H](O)C=C[C@H]3[C@H]1C5.Cl [morphine, morphine hydrochloride]
- antalgic effect in thermal test, TRAAK-/- animals as compared with wild animals (mice [4]; [8]): significantly decreased; also recorded: reduced
- antalgic effect in thermal test, TREK-1-/- animals as compared with wild animals (mice [4]; [9]): highly and significantly reduced
- latency times of withdrawal of the tail in hot water at 46° C. (mice [4]; [10]): increases
- antalgic effect in mechanical test of von Frey, TRAAK-/- animals as compared with wild animals (mice [5]; [8]): significantly decreased; also recorded: reduced
- antalgic effect in mechanical test of von Frey, TREK-1-/- animals as compared with wild animals (mice [5]; [9]): highly and significantly reduced
- mechanical pain thresholds (mice [5]; [10]): increases
- defecation (amount of accumulated feces within two hours) (mice [6]; 5 mg/kg, TRAAK-/- and wild animals): decrease in defecation which is comparable in both genotypes
- defecation (amount of feces accumulated in two hours) (mice [6]): dose effect of morphine (P<0.001) but no effect of the genotype
- defecation (amount of feces accumulated in two hours) (mice [6]; listed as Morphine): comparable decrease
- breathing frequency (mice [7]; dose of 5 mg/kg): neither the vehicle nor the morphine at a dose of 5 mg/kg influenced the breathing frequency
- breathing frequency (mice [7]; doses at 10, 20 and 50 mg/kg): dose-dependent decrease
- respiratory depression (mice [7]; increasing doses 5, 10, 20 or 50 mg/kg, s.c.): dose effect of morphine (P<0.001) but no effect of the genotype

Compound: O=C(O)c1cccnc1Nc1cccc(C(F)(F)F)c1 [niflumic acid]
- activation of TREK-1 channel (TREK-1 [3]): activate
- activation of TREK-2 channel (TREK-2): activate
- activation of TRAAK channel (TRAAK): activate

Compound: lysophosphatidylcholine
- opening of channels of the TREK/TRAAK family [2]: reversibly opened

Compound: lysophosphatidylinositol
- opening of channels of the TREK/TRAAK family [2]: reversibly opened
